Series [1] has as its target T1, M3 receptor (carbachol-induced detrusor contraction) (Rattus norvegicus, UniProt P08483).
T1 construct: the whole bladder was immediately isolated to prepare detrusor strips in Krebs’ solution; from tissue; host or cells: bladder detrusor strips / bladder sections of SHR
The series can be described thus: Carbachol-induced bladder strip (detrusor) contraction, ex vivo organ bath. Type of series: cell-based, spontaneously hypertensive rats (SHRs). Particulars: for IC50 / IC10 value: carbachol (10 μM)-induced detrusor contraction, Mean ± SEM, n = 3; for inhibition at 100 µg/mL: read-out: inhibition rate at 100 μg/ml; for remaining activity at 100 µg/mL: 100 μg/ml. The method, then:
SHRs were sacrificed with carbon dioxide, and the whole bladder was immediately isolated to prepare detrusor strips in Krebs’ solution. Then, the strips were placed in a PanLab organ bath (Harvard Apparatus, Holliston, Massachusetts, United States) full of bubbling Krebs’ solution at 37°C. After stimulation with high-potassium solution, the strips were washed with Krebs’ solution three times. When the strips were incubated in Krebs’ solution until the tension was set at about 1.5 g, 0.1% DMSO was added for a 10-min incubation as a control, and then the muscle strip was stimulated to shrink by adding muscarinic agonist carbachol (10 μM), which is used for determinization of M3 receptor function in the bladder strip ([Liang and Leung, 2012]). Between two stimulations, the strips were washed out and balanced for 15 min. The contraction force of the bladder strip was recorded. After the experiment, detrusor strips were collected, dried, and weighed for data normalization. Data were recorded and analyzed using LabChart software (version 8.0).
Detrusor strips were isolated from SHRs and placed in the organ bath as mentioned previously, and then inhibitory activities of different fractions at 100 μg/ml were tested under carbachol (10 μM)-stimulated detrusor contraction.

The nature of series [2]: Urine metabolites after oral Gegen water extract, quantified by UPLC-MS/MS. The format is in vivo, spontaneously hypertensive rats (SHRs). Particulars: spontaneously hypertensive rat (SHR), 3-week treatment, Mean ± SEM; for concentration at 2 h: 2 h after last dose of Gegen water extract 300 mg/kg p.o., n = 8, read-out: Content in urine, 2 h; for concentration at 4 h: 4 h after last dose of Gegen water extract 300 mg/kg p.o., n = 8, read-out: Content in urine, 4 h; for concentration at 6 h: 6 h after last dose of Gegen water extract 300 mg/kg p.o., n = 8, read-out: Content in urine, 6 h; for concentration at 8 h: 8 h after last dose of Gegen water extract 300 mg/kg p.o., n = 8, read-out: Content in urine, 8 h. The protocol:
Urine samples were collected into ice-cold 15-ml Falcon tubes every 2 h and up to a total of 8 h, and the tubes were cooled by ice to prevent bacteria proliferation and water evaporation during collection. […] The gradient profile was set as follows: 10-40% B from 0 to 11 min; and 40-80% B from 11 to 15 min. The parameters for mass spectrometry were as follows: capillary, 2.5 kV for negative mode; sampling cone, 34 V; source offset, 80 V; cone gas flow, 150 L/h; desolvation gas flow, 650 L/h; and desolvation temperature, 350°C. Samples were kept at 4°C in the sample manager, and the column was maintained at 40°C. […] The precision and accuracy of the quantitation were satisfied according to FDA Bioanalytical Method Validation Guidance for Industry. Total ion chromatograms including retention times and MRM masses are shown in Supplementary Figure S2.

For series [3], the target named is T2, recombinant human M3 receptor (Homo sapiens, UniProt P20309).
T2 construct: Full-length recombinant human M3 muscarinic acetylcholine receptor membrane preparation was provided by Millipore Co; purchased Millipore Co. (Merck KGaA, Darmstadt, Germany)
T2 sequence (P20309 whole entry): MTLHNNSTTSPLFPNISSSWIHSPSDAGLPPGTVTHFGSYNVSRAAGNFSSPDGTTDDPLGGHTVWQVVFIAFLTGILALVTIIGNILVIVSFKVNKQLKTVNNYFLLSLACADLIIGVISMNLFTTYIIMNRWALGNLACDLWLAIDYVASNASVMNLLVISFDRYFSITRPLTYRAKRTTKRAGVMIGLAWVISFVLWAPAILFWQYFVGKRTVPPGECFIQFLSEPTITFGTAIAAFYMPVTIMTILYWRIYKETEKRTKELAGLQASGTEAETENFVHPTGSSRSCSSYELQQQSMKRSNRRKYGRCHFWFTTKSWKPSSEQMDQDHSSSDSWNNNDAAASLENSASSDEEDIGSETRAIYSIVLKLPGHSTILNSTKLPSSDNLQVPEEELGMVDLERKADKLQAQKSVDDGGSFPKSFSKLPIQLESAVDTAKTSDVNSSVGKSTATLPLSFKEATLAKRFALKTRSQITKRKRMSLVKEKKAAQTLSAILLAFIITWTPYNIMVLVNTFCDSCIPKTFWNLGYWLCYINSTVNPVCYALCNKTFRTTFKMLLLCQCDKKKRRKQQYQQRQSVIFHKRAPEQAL
The series can be described thus: Thermal shift assay with recombinant human M3 receptor protein. Type of series: binding. Particulars: for binding to the human M3 receptor protein (verdict in words): thermal shift; for Tm value of the human M3 receptor protein: compound at 100 μg/ml, control (1% DMSO) 64.17 ± 0.37°C, n = 3. The method, then: A thermal shift assay was performed to measure the binding of ligands to a recombinant human M3 receptor as modified from the previous study ([Huynh and Partch, 2015]). Briefly, after optimization of protein and dye concentrations, the M3 receptor protein (0.025 mg/ml) was incubated with different concentrations of tested compounds (0–100 μg/ml in 1% DMSO) in an 18 μl volume of ice-cold PBS for 2 h. Then, SYPRO Orange protein stain (2 μl; 8x as the final concentration diluted from original 5000x with PBS) was added, and the melt curve was detected using the Applied Biosystems QuantStudio5 real-time PCR system under the following conditions: ramp speed, standard; excitation wavelength at 470 nm (Reporter: FAM), and emission wavelength at 586 nm (Quencher: TAMRA) with no passive reference; an initial 2-min hold at 25°C (ramp rate, 1.6°C/s), ramping up in increments of 0.05°C/s to a final temperature of 99°C. Melt temperatures (Tm) were calculated using Protein Thermal Shift software v.1.4 (Applied Biosystems, Thermo, United States). The change in melt temperature (ΔTm) was equal to the Tm of control (1% DMSO) subtracted from the Tm of the tested compound. ΔTm higher than 2°C was considered a positive interaction between the ligand and receptor protein ([Huynh and Partch, 2015]).

The conditions of series [4]: cited from earlier work.
For a further series, the target named is BSA (Bos taurus, UniProt P02769). The series can be described thus: Thermal shift control in PBS containing BSA and glycerin. The format is binding. Particulars: 100 μg/ml; no M3 receptor protein; read-out: ΔTm in PBS solution containing BSA and glycerin.
Chain of BSA (P02769 25-607): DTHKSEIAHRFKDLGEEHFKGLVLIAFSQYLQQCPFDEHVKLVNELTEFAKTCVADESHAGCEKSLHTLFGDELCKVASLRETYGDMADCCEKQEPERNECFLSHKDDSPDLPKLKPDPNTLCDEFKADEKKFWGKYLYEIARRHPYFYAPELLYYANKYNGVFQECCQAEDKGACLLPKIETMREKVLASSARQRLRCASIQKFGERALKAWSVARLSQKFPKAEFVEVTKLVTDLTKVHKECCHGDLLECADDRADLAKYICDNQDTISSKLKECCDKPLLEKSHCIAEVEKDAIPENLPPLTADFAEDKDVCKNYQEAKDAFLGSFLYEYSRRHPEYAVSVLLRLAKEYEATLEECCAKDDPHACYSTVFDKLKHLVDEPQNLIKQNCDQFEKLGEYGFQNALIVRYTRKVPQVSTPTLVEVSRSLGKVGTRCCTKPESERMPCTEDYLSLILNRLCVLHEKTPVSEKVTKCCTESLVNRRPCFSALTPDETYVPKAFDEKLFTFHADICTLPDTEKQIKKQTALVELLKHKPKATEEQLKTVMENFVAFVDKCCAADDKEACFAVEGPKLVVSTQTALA
For series [5], the target named is T1, M3 receptor (carbachol-induced detrusor contraction). The series can be described thus: Carbachol-induced bladder strip (detrusor) contraction, ex vivo organ bath. The format is cell-based, spontaneously hypertensive rats (SHRs). Particulars: read-out: inhibition at 12.5 μg/ml.
[6] abbreviates: pure compounds at 100 μg/ml, carbachol 10 μM.

The values below come from PMC9576955, “Daidzein is the in vivo active compound of Puerariae Lobatae Radix water extract for muscarinic receptor-3 inhibition against overactive bladder” (Frontiers in Pharmacology, 2022).

≈ marks a conversion by molar mass, not a printed value. Where two headings read alike, the source gives them in different places.

T1 sequence (P08483 whole entry): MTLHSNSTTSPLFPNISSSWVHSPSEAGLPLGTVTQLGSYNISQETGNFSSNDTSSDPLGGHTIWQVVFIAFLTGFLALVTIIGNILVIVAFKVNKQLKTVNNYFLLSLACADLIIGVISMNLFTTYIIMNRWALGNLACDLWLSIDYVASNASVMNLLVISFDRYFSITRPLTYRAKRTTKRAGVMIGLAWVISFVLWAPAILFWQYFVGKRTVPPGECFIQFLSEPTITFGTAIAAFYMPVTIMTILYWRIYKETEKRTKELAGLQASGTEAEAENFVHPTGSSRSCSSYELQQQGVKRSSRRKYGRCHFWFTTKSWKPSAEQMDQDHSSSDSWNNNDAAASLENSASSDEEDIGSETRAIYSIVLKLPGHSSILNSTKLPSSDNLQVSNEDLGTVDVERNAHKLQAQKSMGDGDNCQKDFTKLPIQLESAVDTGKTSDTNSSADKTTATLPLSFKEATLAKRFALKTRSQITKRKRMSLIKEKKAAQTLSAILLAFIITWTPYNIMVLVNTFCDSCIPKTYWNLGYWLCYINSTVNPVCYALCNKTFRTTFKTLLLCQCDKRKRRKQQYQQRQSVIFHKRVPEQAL

In general, IC50 refers to the concentration that gives 50% inhibition. In the case of `O=c1c(-c2ccc(O)cc2)coc2cc(O[C@@H]3O[C@H](CO)[C@@H](O)[C@H](O)[C@H]3O)cc(O)c12` [Genistin, genistin (genistein-7-O-glucoside)], the IC50 in series [1] was greater than 231 µM.

Consider `O=c1c(-c2ccc(O)cc2)coc2c([C@@H]3O[C@H](CO)[C@@H](O)[C@H](O)[C@H]3O)c(O)ccc12` [Puerarin, puerarin (daidzein-8-C-glucoside)], for which, in series [1], the IC10 value was 2.90 ± 2.11 µg/mL (≈ 6.96 µM) and the inhibition at 100 µg/mL was 33.8 ± 3.05%. Further, in series [2] (urine, oral), the concentration at 2 h was 6380 ± 897 ng/mL, the concentration at 4 h turned out to be 10300 ± 2480 ng/mL, the concentration at 6 h worked out at 3310 ± 325 ng/mL and the concentration at 8 h turned out to be 2210 ± 164 ng/mL. Moreover, the “binding to the human M3 receptor protein (verdict in words)” value in series [3] (100 μg/ml) was “very weak binding”. For the same compound, in series [3], the “Tm value of the human M3 receptor protein” value turned out to be 64.92 ± 0.03 °C. In addition, the “plasma AUC” value in series [4] (after oral administration of Gegen water extract, ref Wei et al., 2020) was 15.1 µg·h/mL.

`O=c1c(-c2ccc(O)cc2)coc2c([C@@H]3O[C@H](CO[C@@H]4OC[C@](O)(CO)[C@H]4O)[C@@H](O)[C@H](O)[C@H]3O)c(O)ccc12` [Puerarin apioside, puerarin apioside] yielded a remaining activity at 100 µg/mL in series [1] (carbachol 10 μM) of 89.3 ± 9.2%. The inhibition at 100 µg/mL in series [1] (setting [6]) was determined as 10.7 ± 9.24%.

`O=c1c(-c2ccc(O)cc2)coc2cc(O)cc(O)c12` [Genistein, Genistein (5-hydroxyl daidzein)]: in series [2] (in vivo), the concentration at 2 h was determined as 517 ± 138 ng/mL, the concentration at 4 h amounted to 1410 ± 1000 ng/mL, the concentration at 6 h turned out to be 327 ± 98 ng/mL and the concentration at 8 h turned out to be 342 ± 35 ng/mL.

For orientation: ΔTm means the shift of the melting midpoint relative to a reference. In series [1], `O=c1c(-c2ccc(O)cc2)coc2cc(O)ccc12` [Daidzein, daidzein] showed an IC10 value of 8.15 ± 1.85 µg/mL (≈ 32.1 µM) and a concentration for half-maximal inhibition (IC50) of 158 µM. In addition, in series [2] (urine, oral), the concentration at 2 h came out at 4400 ± 1000 ng/mL, the concentration at 4 h turned out to be 15900 ± 9300 ng/mL, the concentration at 6 h is 8130 ± 2660 ng/mL and the concentration at 8 h was 14400 ± 5140 ng/mL. The ΔTm at 100 µg/mL in series [3] (100 μg/ml, against 1% DMSO, ΔTm higher than 2°C = positive interaction) was 2.12 °C. Moreover, the “binding to the human M3 receptor protein (verdict in words)” value in series [3] (100 μg/ml) is recorded as “positively bound”. Further, the EC50 in series [3] (3.125–100 μg/ml, at 65.3°C, read-out: EC50 of concentration-dependent increase of Tm (converted)) is 62.1 µM. Moreover, the “Tm value of the human M3 receptor protein” value in series [3] is 66.29 ± 0.38 °C. Further, the ΔTm at 100 µg/mL on BSA was roughly 0.58 °C. The inhibition at 12.5 µg/mL in series [5] was found to be 15%. The “plasma AUC” value in series [4] (rat, in vivo, po) is recorded as 4·4 μg·h/mL.

In series [1], `COc1ccc(-c2coc3cc(O)cc(O)c3c2=O)cc1` [Biochanin A, Biochanin A (genistein 4′-methyl ether)] showed an IC10 value of 34.94 ± 6.75 µg/mL (≈ 123 µM) and a half-inhibitory concentration (IC50) of 201 µM. For the same compound, in series [2] (urine, oral), the concentration at 2 h came out at 26 ± 7 ng/mL, the concentration at 4 h worked out at 85 ± 57 ng/mL, the concentration at 6 h stood at 30 ± 14 ng/mL and the concentration at 8 h is 28 ± 5 ng/mL.

In series [1] (carbachol 10 μM), `O=c1c(-c2ccc(O)c(O)c2)coc2c([C@@H]3O[C@H](CO)[C@@H](O)[C@H](O)[C@H]3O)c(O)ccc12` [3′-Hydroxypuerarin, 3′-hydroxypuerarin] returned a remaining activity at 100 µg/mL of 82.3 ± 1.8%. Moreover, the inhibition at 100 µg/mL in series [1] (setting [6]) is 17.8 ± 1.75%.
